Measurements from patent US20230226106A1 (priority 2017, published 2023).

System: Human umbilical cord endothelial cells
Format: cell-based
From the text: The toxicity of each component is checked on Human cell lines (Human umbilical cord endothelial cells).

Structure (SMILES) | human cell growth (treatment with as much as 250 μg/mL) [%] | toxicity (Human umbilical cord endothelial cells) | proliferation of cells (at as low as 1 μM concentration)
O=C(O)c1cc(O)c(O)c(O)c1 [Gallic acid] | 100 |  | 
CCCCCCCCCCCCC/C=C/[C@@H](O)[C@@H](N)COP(=O)(O)O [Sphingosine-1-phosphate, Sphingosine-1-Phosphate] |  | not toxic | proliferative
